Measurements: US20170306042A1, “IMMUNOGENIC MODULATION BY ENDOCRINE DEPRIVATION THERAPY IMPROVES SENSITIVITY OF TUMOR CELLS TO IMMUNE MEDIATED LYSIS” (The United States of America, as represented by the …, priority 2014, published 2017)
“Also recorded” adds a separate entry of the source.

Key:
[1] = tested on: LNCaP (AR+, HLA-A2) cells; experiment: Cell proliferation and viability by trypan blue exclusion, LNCaP; assay type: cell-based, human; settings: 10 μM
Procedure: (§1) Cells were harvested 24, 48, or 72 h after exposure, and the total number of adherent viable cells was determined by trypan blue exclusion. Viability was confirmed by 7AAD staining.

[2] = tested on: PC-3 (AR−, HLA-A24) cells; experiment: Cell proliferation and viability by trypan blue exclusion, PC-3; assay type: cell-based, human; settings: 10 μM
Procedure: as §1

LNCaP cells [3] = experiment: MUC1-specific CTL lysis assay, LNCaP targets; assay type: cell-based, human; settings: 10 μM, 48 hours, E:T 30:1, vs vehicle
Procedure: (§5) At specific time points, cells were harvested and counted. Equal numbers of effector target cells from all treatment were plated with respective cytotoxic T-cells.

PC-3 cells = experiment: MUC1-specific CTL lysis assay, PC-3 targets; assay type: cell-based, human; settings: 10 μM, 48 hours, E:T 30:1, vs vehicle
Procedure: as §5

PSA = experiment: RT-PCR of PSA mRNA in LNCaP cells; assay type: cell-based, human; settings: 10 μM, 48 hours, P<0.0001
NAIP [4] = experiment: NAIP immunohistochemistry in LNCaP xenografts in nude mice; assay type: in vivo; settings: 10 mg/day, 7 days
Excerpt: (§2) To examine the reduced expression of NAIP in vivo, either LNCaP or PC-3 cells were transplanted into […] nude mice (Charles River, Wilmington, Mass.) (s.c. in the right flank with 5×10^6 LNCaP or PC-3 prostate tumor cells). […] After 7 days of treatment, tumors were subjected to immunohistochemistry staining to detect the presence and intensity of NAIP expression. Specifically, NAIP expression was detected via immunohistochemistry using a rabbit polyclonal antibody to NAIP (Novus Bio, Littleton, Colo.) according to the manufacturer's instructions. Entire slides were digitally scanned by an Aperio ScanScope CS system and analyzed by Aperio ImageScope Viewer software (Aperio Technologies Inc., Vista, Calif.). Statistical analysis was performed using 3-7 murine tumors, each prepared as a complete stained tumor section. Positive tumor regions were determined using the Positive Pixel Count v9 algorithm. Negative controls included omission of primary antibody with PBS and matched rabbit isotype antibody. In all cases, necrotic areas of tumor were excluded from analysis.

NAIP [5] = experiment: NAIP immunohistochemistry in PC-3 xenografts in nude mice; assay type: in vivo; settings: 10 mg/day, 7 days
Excerpt: as §2

LNCaP cells [6] = experiment: CEA-specific CTL lysis assay, LNCaP targets; assay type: cell-based, human; settings: 10 μM, 48 hours, E:T 30:1, P<0.0001
Excerpt: To evaluate the importance of DAPK1, DAPK1 siRNA was used to reduce the expression of DAPK1.

LNCaP/AR(cs) cells = experiment: Cell proliferation and viability, LNCaP/AR(cs); assay type: cell-based, human
ZR75-1 (ER+AR+) cells = experiment: Tumor cell proliferation, ZR75-1; assay type: cell-based, human; settings: 10 μM; 48 or 72 hours; P<0.05 vs vehicle
Procedure: At the indicated time points, cells were harvested and the number of viable cells was determined by trypan blue exclusion.

[7] = tested on: MDA MB 231 (ER−AR−) cells; experiment: CEA-specific CTL lysis assay, MDA MB 231 targets; assay type: cell-based, human; settings: 10 μM, E:T 30:1, vs vehicle
Procedure: (§3) The HLA-A2-restricted CEA-specific CTL recognizes the CEA peptide epitope […] (SEQ ID NO: 1) (CAP-1). […] The percentage of tumor lysis was calculated as follows: % tumor lysis=[(experimental cpm−spontaneous cpm)/(maximum cpm−spontaneous cpm)]×100.
(§4) OPG expression was inhibited in MDA MB 231 cells using siRNA duplexes targeting OPG sequences and control siRNA duplexes (Origene, Rockville, Md.). MDA-MB-231 cells were transfected with OPG or control siRNA according to the manufacturer's instructions. […] Forty-eight hours post siRNA transfection, the MDA MB 231 cells were also used as target cells in CEA-specific CTL and TRAIL-mediated lysis assays as described.
These cells were then used as target cells for CTL-mediated killing assays utilizing CEA-specific CTLs.

[8] = tested on: MDA MB 231 (ER−AR−) cells; experiment: TRAIL-mediated lysis assay, MDA MB 231 targets; assay type: cell-based, human; settings: 10 μM, 500 ng/ml KillerTRAIL, P<0.01
Procedure: as §3, §4

OPG = experiment: ELISA of secreted OPG, MDA MB 231 cells; assay type: cell-based, human; settings: 10 μM, 48 hours, P<0.05
Procedure: ELISA was performed on combined supernatant samples taken following 24 and 48 hours of treatment.
as §4

[9] = tested on: LNCaP control-shRNA (AR+, HLA-A2) cells; settings: 10 μM; P<0.01
[10] = tested on: LNCaP AR-shRNA (AR−, HLA-A2) cells; settings: 10 μM
ZR75-1 cells = settings: 10 μM, 48 hours
Procedure: (§6) After 48 hours, cells were harvested and stained with the following antibodies: HLA A2-PE-Cy7, MUC-1-FITC, CD54-BV421, CD95-FITC (BD Biosciences, San Jose, Calif.), CEA-APC (Miltenyi Biotec, Auburn, Calif.), TRAIL receptor 1 and TRAIL receptor 2 (R & D Systems, Minneapolis, Minn.). LIVE/DEAD Fixable Violet Dead Cell Stain (Life Technologies, Grand Island, N.Y.) was used to determine cell viability. Cells were incubated with the antibodies for 30 min at 4° C., acquired on a FACS Verse flow cytometer (Becton Dickinson, Franklin Lakes, N.J.), and analyzed using FlowJo software (TreeStar, Inc., Ashland, Oreg.).

BT549 cells = settings: 10 μM, 48 hours
Procedure: as §6

prostate cancer = settings: reported clinical trials; cited from earlier work
[11] = tested on: TRAMP-C2 mouse prostate carcinomas; settings: in vitro (Ardiani et al. 2013); cited from earlier work
[12] = tested on: LNCaP control-shRNA cells; experiment: CEA-specific CTL lysis assay, LNCaP control-shRNA targets; settings: 10 μM, 48 hours, E:T 30:1, P<0.05
Procedure: as §5

[13] = trypan blue exclusion after 3 days of drug exposure

## enzalutamide
[1]; [13]
  viability of LNCaP cells: Neither enzalutamide nor abiraterone affected the viability
[1]; vs vehicle (DMSO), P<0.01
  growth / proliferation of LNCaP cells: significantly inhibited the growth
[2]; [13]
  viability of PC-3 cells: Neither enzalutamide nor abiraterone affected the viability
[2]; vs vehicle (DMSO)
  proliferation of PC-3 cells: did not inhibit the proliferation
LNCaP cells [3]
  sensitivity to MUC1-specific CTL-mediated lysis: significantly enhanced their sensitivity
PC-3 cells
  sensitivity to MUC1-specific CTL-mediated lysis: neither enzalutamide nor abiraterone improved PC-3 cells' sensitivity; also recorded: did not improve the sensitivity
PSA
  reduction in levels of PSA mRNA: 5.5 fold
NAIP [4]; immunohistochemistry
  NAIP staining in LNCaP tumors vs untreated mice: much less intense staining
NAIP [4]; LNCaP xenografts, P<0.01
  decrease of overall population of tumor cells expressing NAIP: 1.5 fold
  increase in tumor area that did not express NAIP: 2.2 fold
NAIP [5]
  NAIP expression in PC-3 tumors vs untreated: did not mediate significant changes in NAIP expression
LNCaP cells [6]
  sensitivity to CEA-specific CD8+ T-cell killing: significantly enhanced the sensitivity
LNCaP/AR(cs) cells; 10 μM
  proliferation of LNCaP/AR(cs) cells: did not inhibit the proliferation
LNCaP/AR(cs) cells; 30 μM
  inhibition of growth of LNCaP/AR(cs) cells: 50%
  viability of LNCaP/AR(cs) cells: no effect on the cells' viability
ZR75-1 (ER+AR+) cells
  proliferation of ZR75-1 cells: significantly inhibited the proliferation
[7]
  sensitivity to CEA-specific CTL-mediated lysis: capable of increasing the sensitivity
[8]
  sensitivity to Trail-mediated lysis: significantly improved the sensitivity
OPG
  amount of secreted OPG: reduced the amount of OPG
[9]
  proliferation of LNCaP control-shRNA: significantly inhibited the proliferation
[10]
  growth of LNCaP AR-shRNA: did not affect the growth
ZR75-1 cells
  CEA mean fluorescence intensity: 4690
  CEA percent positivity: 28.9%
  Fas mean fluorescence intensity: 1611
  Fas percent positivity: 26.8%
  HLA A2 mean fluorescence intensity: 3047
  HLA A2 percent positivity: 10.0%
  ICAM-1 mean fluorescence intensity: 2473
  ICAM-1 percent positivity: 26.1%
  MUC-1 mean fluorescence intensity: 2203
  MUC-1 percent positivity: 37.1%
  Trail R1 mean fluorescence intensity: 4325
  Trail R1 percent positivity: 7.9%
  Trail R2 mean fluorescence intensity: 4502
BT549 cells; BT549 (ER−AR+)
  cell-surface markers with increased expression: upregulated the expression of ICAM-1 as well as Trail receptors 1 and 2 and the tumor associated antigen CEA
BT549 cells; BT549
  CEA mean fluorescence intensity: 3443
  CEA percent positivity: 15.3%
  Fas mean fluorescence intensity: 566
  Fas percent positivity: 15.8%
  HLA A2 mean fluorescence intensity: 2532
  HLA A2 percent positivity: 87.6%
  ICAM-1 mean fluorescence intensity: 6239
  ICAM-1 percent positivity: 26.1%
  MUC-1 mean fluorescence intensity: 930
  MUC-1 percent positivity: 25.5%
  Trail R1 mean fluorescence intensity: 562
  Trail R1 percent positivity: 23.6%
Prostate cancer
  prostate cancer patients who did not respond and continued to have rising PSA levels: more than 30%
[11]
  sensitivity to gp70-specific CTL killing: improve tumor cells' sensitivity
[12]
  sensitivity to CEA-specific CTL-mediated lysis: significantly enhanced the sensitivity
